Source: ChEMBL document CHEMBL2380302, “Synthesis of 3-O-propargylated betulinic acid and its 1,2,3-triazoles as potential apoptotic agents” (Eur J Med Chem, 2013)

How the values were obtained:
THP-1 [1] = test: Cytotoxicity against human THP1 cells at 50 uM after 48 hrs by SRB assay; assay type: functional; settings: THP-1, 48 h, read-out: GI
HL-60 [2] = test: Cytotoxicity against human HL60 cells at 10 uM after 48 hrs by SRB assay; assay type: functional; settings: HL-60, 48 h, read-out: GI
DU-145 [3] = test: Cytotoxicity against human DU145 cells at 50 uM after 48 hrs by SRB assay; assay type: functional; settings: DU-145, 48 h, read-out: GI
PC-3 [4] = test: Cytotoxicity against human PC3 cells at 10 uM after 48 hrs by SRB assay; assay type: functional; settings: PC-3, 48 h, read-out: GI
PC-3 [5] = test: Cytotoxicity against human PC3 cells after 48 hrs by SRB assay; assay type: functional, cell-based; settings: PC-3, 48 h
SF-295 [6] = test: Cytotoxicity against human SF295 cells at 10 uM after 48 hrs by SRB assay; assay type: functional; settings: SF-295, 48 h, read-out: GI
PC-3 [7] = test: Cytotoxicity against human PC3 cells at 50 uM after 48 hrs by SRB assay; assay type: functional; settings: PC-3, 48 h, read-out: GI
DU-145 [8] = test: Cytotoxicity against human DU145 cells at 10 uM after 48 hrs by SRB assay; assay type: functional; settings: DU-145, 48 h, read-out: GI
A549 [9] = test: Cytotoxicity against human A549 cells at 10 uM after 48 hrs by SRB assay; assay type: functional; settings: A549, 48 h, read-out: GI
A549 [10] = test: Cytotoxicity against human A549 cells after 48 hrs by SRB assay; assay type: functional, cell-based; settings: A549, 48 h
HEp-2 [11] = test: Cytotoxicity against human Hep2 cells at 10 uM after 48 hrs by SRB assay; assay type: functional; settings: HEp-2, 48 h, read-out: GI
HEp-2 [12] = test: Cytotoxicity against human Hep2 cells at 50 uM after 48 hrs by SRB assay; assay type: functional; settings: HEp-2, 48 h, read-out: GI
HCT-15 [13] = test: Cytotoxicity against human HCT15 cells at 50 uM after 48 hrs by SRB assay; assay type: functional; settings: HCT-15, 48 h, read-out: GI
MCF7 [14] = test: Cytotoxicity against human MCF7 cells at 10 uM after 48 hrs by SRB assay; assay type: functional; settings: MCF7, 48 h, read-out: GI
THP-1 [15] = test: Cytotoxicity against human THP1 cells after 48 hrs by SRB assay; assay type: functional, cell-based; settings: THP-1, 48 h
PC-3 [16] = test: Cytotoxicity against human PC3 cells at 30 uM after 48 hrs by SRB assay; assay type: functional; settings: PC-3, 48 h, read-out: GI
HL-60 [17] = test: Cytotoxicity against human HL60 cells at 50 uM after 48 hrs by SRB assay; assay type: functional; settings: HL-60, 48 h, read-out: GI
MCF7 [18] = test: Cytotoxicity against human MCF7 cells at 30 uM after 48 hrs by SRB assay; assay type: functional; settings: MCF7, 48 h, read-out: GI
SF-295 [19] = test: Cytotoxicity against human SF295 cells at 50 uM after 48 hrs by SRB assay; assay type: functional; settings: SF-295, 48 h, read-out: GI
HCT-15 [20] = test: Cytotoxicity against human HCT15 cells after 48 hrs by SRB assay; assay type: functional, cell-based; settings: HCT-15, 48 h
HCT-15 [21] = test: Cytotoxicity against human HCT15 cells at 30 uM after 48 hrs by SRB assay; assay type: functional; settings: HCT-15, 48 h, read-out: GI
THP-1 [22] = test: Cytotoxicity against human THP1 cells at 30 uM after 48 hrs by SRB assay; assay type: functional; settings: THP-1, 48 h, read-out: GI
HEp-2 [23] = test: Cytotoxicity against human Hep2 cells at 30 uM after 48 hrs by SRB assay; assay type: functional; settings: HEp-2, 48 h, read-out: GI
A549 [24] = test: Cytotoxicity against human A549 cells at 50 uM after 48 hrs by SRB assay; assay type: functional; settings: A549, 48 h, read-out: GI
DU-145 [25] = test: Cytotoxicity against human DU145 cells at 30 uM after 48 hrs by SRB assay; assay type: functional; settings: DU-145, 48 h, read-out: GI
HL-60 [26] = test: Cytotoxicity against human HL60 cells at 30 uM after 48 hrs by SRB assay; assay type: functional; settings: HL-60, 48 h, read-out: GI
SF-295 [27] = test: Cytotoxicity against human SF295 cells after 48 hrs by SRB assay; assay type: functional, cell-based; settings: SF-295, 48 h
DU-145 [28] = test: Cytotoxicity against human DU145 cells after 48 hrs by SRB assay; assay type: functional, cell-based; settings: DU-145, 48 h
THP-1 [29] = test: Cytotoxicity against human THP1 cells at 10 uM after 48 hrs by SRB assay; assay type: functional; settings: THP-1, 48 h, read-out: GI
HL-60 [30] = test: Cytotoxicity against human HL60 cells after 48 hrs by SRB assay; assay type: functional, cell-based; settings: HL-60, 48 h
MCF7 [31] = test: Cytotoxicity against human MCF7 cells after 48 hrs by SRB assay; assay type: functional, cell-based; settings: MCF7, 48 h
SF-295 [32] = test: Cytotoxicity against human SF295 cells at 30 uM after 48 hrs by SRB assay; assay type: functional; settings: SF-295, 48 h, read-out: GI
A549 [33] = test: Cytotoxicity against human A549 cells at 30 uM after 48 hrs by SRB assay; assay type: functional; settings: A549, 48 h, read-out: GI
MCF7 [34] = test: Cytotoxicity against human MCF7 cells at 50 uM after 48 hrs by SRB assay; assay type: functional; settings: MCF7, 48 h, read-out: GI
HCT-15 [35] = test: Cytotoxicity against human HCT15 cells at 10 uM after 48 hrs by SRB assay; assay type: functional; settings: HCT-15, 48 h, read-out: GI
HEp-2 [36] = test: Cytotoxicity against human Hep2 cells after 48 hrs by SRB assay; assay type: functional, cell-based; settings: HEp-2, 48 h

SMILES	inhibition of growth at 50 µM (THP-1 [1])	inhibition of growth at 10 µM (HL-60 [2])	inhibition of growth at 50 µM (DU-145 [3])	inhibition of growth at 10 µM (PC-3 [4])	IC50 (PC-3 [5])	inhibition of growth at 10 µM (SF-295 [6])	inhibition of growth at 50 µM (PC-3 [7])	inhibition of growth at 10 µM (DU-145 [8])	inhibition of growth at 10 µM (A549 [9])	IC50 (A549 [10])	inhibition of growth at 10 µM (HEp-2 [11])	inhibition of growth at 50 µM (HEp-2 [12])	inhibition of growth at 50 µM (HCT-15 [13])	inhibition of growth at 10 µM (MCF7 [14])	IC50 (THP-1 [15])	inhibition of growth at 30 µM (PC-3 [16])	inhibition of growth at 50 µM (HL-60 [17])	inhibition of growth at 30 µM (MCF7 [18])	inhibition of growth at 50 µM (SF-295 [19])	IC50 (HCT-15 [20])	further results
C=C(C)[C@@H]1CC[C@]2(C(=O)O)CC[C@]3(C)[C@H](CC[C@@H]4[C@@]5(C)CC[C@H](OCc6cn(-c7ccc(C#N)cc7)nn6)C(C)(C)[C@@H]5CC[C@]43C)[C@@H]12	47%	15%	20%	3%	> 50 µM	5%	42%	1%	22%	> 50 µM	1%	60%	39%	5%	> 50 µM	5%	48%	32%	54%	> 50 µM	inhibition of growth at 30 µM (HCT-15 [21]): 80%; inhibition of growth at 30 µM (THP-1 [22]): 44%; inhibition of growth at 30 µM (HEp-2 [23]): 49%; inhibition of growth at 50 µM (A549 [24]): 36%; inhibition of growth at 30 µM (DU-145 [25]): 15%; inhibition of growth at 30 µM (HL-60 [26]): 40%; IC50 (SF-295 [27]): 48 µM; IC50 (DU-145 [28]): > 50 µM; inhibition of growth at 10 µM (THP-1 [29]): 21%; IC50 (HL-60 [30]): 32 µM; IC50 (MCF7 [31]): 49 µM; inhibition of growth at 30 µM (SF-295 [32]): 18%; inhibition of growth at 30 µM (A549 [33]): 28%; inhibition of growth at 50 µM (MCF7 [34]): 51%; inhibition of growth at 10 µM (HCT-15 [35]): 14%; IC50 (HEp-2 [36]): 32 µM
C=C(C)[C@@H]1CC[C@]2(C(=O)O)CC[C@]3(C)[C@H](CC[C@@H]4[C@@]5(C)CC[C@H](OCc6cn(-c7cc(OC)c(OC)c(OC)c7)nn6)C(C)(C)[C@@H]5CC[C@]43C)[C@@H]12	58%	41%	11%	8%	> 50 µM	28%	46%	3%	25%	> 50 µM	8%	48%	43%	50%	39 µM	30%	65%	71%	51%	> 50 µM	inhibition of growth at 30 µM (HCT-15 [21]): 35%; inhibition of growth at 30 µM (THP-1 [22]): 44%; inhibition of growth at 30 µM (HEp-2 [23]): 38%; inhibition of growth at 50 µM (A549 [24]): 41%; inhibition of growth at 30 µM (DU-145 [25]): 10%; inhibition of growth at 30 µM (HL-60 [26]): 51%; IC50 (SF-295 [27]): 27 µM; IC50 (DU-145 [28]): > 50 µM; inhibition of growth at 10 µM (THP-1 [29]): 35%; IC50 (HL-60 [30]): 37 µM; IC50 (MCF7 [31]): 10 µM; inhibition of growth at 30 µM (SF-295 [32]): 51%; inhibition of growth at 30 µM (A549 [33]): 26%; inhibition of growth at 50 µM (MCF7 [34]): 74%; inhibition of growth at 10 µM (HCT-15 [35]): 47%; IC50 (HEp-2 [36]): > 50 µM
